Experimental data as given in the NIST ThermoML archive (doi:10.1021/je100175j).
± gives the expanded uncertainty stated by the source.

How the values were obtained:
[1] = Molar enthalpy of transition or fusion; settings: Crystal; DSC
[2] = for Triple point temperature: DTA

With `CN(C)C(=O)c1ccccc1` [N,N-dimethylbenzamide] the “Molar enthalpy of transition or fusion” value [1] was 5.07 ± 0.117 kcal/mol, the “vapor or sublimation pressure” value ([2]; 297.04 K, Crystal) was 0.00054 ± 0.0001 kPa and the “vapor or sublimation pressure” value ([2]; 299.03 K, Crystal) was 0.00069 ± 0.0001 kPa. For the same molecule, the “vapor or sublimation pressure” value ([2]; 301.02 K, Crystal) was 0.00086 ± 0.0001 kPa, the “vapor or sublimation pressure” value ([2]; 301.98 K, Liquid, Closed cell (Static) method) was 0.00134 ± 0.00012 kPa and the “vapor or sublimation pressure” value ([2]; 303.02 K, Crystal) was 0.0011 ± 0.00011 kPa. The “vapor or sublimation pressure” value ([2]; 303.99 K, Liquid, Closed cell (Static) method) was 0.00162 ± 0.00012 kPa, the “vapor or sublimation pressure” value ([2]; 305 K, Crystal) was 0.00138 ± 0.00011 kPa and the “vapor or sublimation pressure” value ([2]; 305.97 K, Liquid, Closed cell (Static) method) was 0.00195 ± 0.00013 kPa. For the same molecule, the “vapor or sublimation pressure” value ([2]; 307 K, Crystal) was 0.00171 ± 0.00011 kPa, the “vapor or sublimation pressure” value ([2]; 307.96 K, Liquid, Closed cell (Static) method) was 0.00232 ± 0.00014 kPa and the “vapor or sublimation pressure” value ([2]; 308.98 K, Crystal) was 0.00215 ± 0.00011 kPa. The “vapor or sublimation pressure” value ([2]; 310.43 K, Liquid, Closed cell (Static) method) was 0.00289 ± 0.00016 kPa, the “vapor or sublimation pressure” value ([2]; 310.98 K, Crystal) was 0.00269 ± 0.00012 kPa and the “vapor or sublimation pressure” value ([2]; 312.3 K, Liquid, Closed cell (Static) method) was 0.00343 ± 0.00017 kPa. The “vapor or sublimation pressure” value ([2]; 312.98 K, Crystal) was 0.00336 ± 0.00012 kPa, the “vapor or sublimation pressure” value ([2]; 314 K, Liquid, Closed cell (Static) method) was 0.00399 ± 0.00019 kPa and the “vapor or sublimation pressure” value ([2]; 314.98 K, Crystal) was 0.00418 ± 0.00013 kPa. The “vapor or sublimation pressure” value ([2]; 316 K, Liquid, Closed cell (Static) method) was 0.00472 ± 0.00021 kPa, the “vapor or sublimation pressure” value ([2]; 317.97 K, Liquid, Closed cell (Static) method) was 0.0056 ± 0.00025 kPa and the “vapor or sublimation pressure” value ([2]; 319.95 K, Liquid, Closed cell (Static) method) was 0.00658 ± 0.00028 kPa. The “vapor or sublimation pressure” value ([2]; 321.94 K, Liquid, Closed cell (Static) method) was 0.00776 ± 0.00032 kPa, the “vapor or sublimation pressure” value ([2]; 323.93 K, Liquid, Closed cell (Static) method) was 0.00909 ± 0.00037 kPa and the “vapor or sublimation pressure” value ([2]; 325.88 K, Liquid, Closed cell (Static) method) was 0.01066 ± 0.00043 kPa. For the same molecule, the “vapor or sublimation pressure” value ([2]; 327.91 K, Liquid, Closed cell (Static) method) was 0.01239 ± 0.0005 kPa, the “vapor or sublimation pressure” value ([2]; 329.85 K, Liquid, Closed cell (Static) method) was 0.01439 ± 0.00054 kPa and the “vapor or sublimation pressure” value ([2]; 331.88 K, Liquid, Closed cell (Static) method) was 0.01676 ± 0.00057 kPa. The “vapor or sublimation pressure” value ([2]; 333.84 K, Liquid, Closed cell (Static) method) was 0.01949 ± 0.00061 kPa, the “vapor or sublimation pressure” value ([2]; 335.85 K, Liquid, Closed cell (Static) method) was 0.02238 ± 0.00066 kPa and the “vapor or sublimation pressure” value ([2]; 337.8 K, Liquid, Closed cell (Static) method) was 0.02598 ± 0.00071 kPa. The “vapor or sublimation pressure” value ([2]; 339.82 K, Liquid, Closed cell (Static) method) was 0.02969 ± 0.00077 kPa, the “vapor or sublimation pressure” value ([2]; 341.77 K, Liquid, Closed cell (Static) method) was 0.03432 ± 0.00084 kPa and the “vapor or sublimation pressure” value ([2]; 343.8 K, Liquid, Closed cell (Static) method) was 0.03916 ± 0.00092 kPa. The “vapor or sublimation pressure” value ([2]; 345.73 K, Liquid, Closed cell (Static) method) was 0.04503 ± 0.001 kPa, the “vapor or sublimation pressure” value ([2]; 347.77 K, Liquid, Closed cell (Static) method) was 0.05151 ± 0.0011 kPa and the “vapor or sublimation pressure” value ([2]; 349.68 K, Liquid, Closed cell (Static) method) was 0.05866 ± 0.0012 kPa. For the same molecule, the “vapor or sublimation pressure” value ([2]; 351.75 K, Liquid, Closed cell (Static) method) was 0.06697 ± 0.0014 kPa, the “vapor or sublimation pressure” value ([2]; 353.64 K, Liquid, Closed cell (Static) method) was 0.07571 ± 0.0015 kPa and the “vapor or sublimation pressure” value ([2]; 355.7 K, Liquid, Closed cell (Static) method) was 0.08611 ± 0.0016 kPa. For the same molecule, the “vapor or sublimation pressure” value ([2]; 357.62 K, Liquid, Closed cell (Static) method) was 0.09722 ± 0.0018 kPa, the “vapor or sublimation pressure” value ([2]; 359.68 K, Liquid, Closed cell (Static) method) was 0.1102 ± 0.002 kPa and the “vapor or sublimation pressure” value ([2]; 361.66 K, Liquid, Closed cell (Static) method) was 0.1244 ± 0.0022 kPa. For the same molecule, the Triple point temperature ([2]; Crystal) was 316.9 ± 0.41 K.
In the case of `CNC(=O)c1ccccc1` [N-methylbenzamide], the “Molar enthalpy of transition or fusion” value [1] is reported as 4.45 ± 0.136 kcal/mol, the “vapor or sublimation pressure” value ([2]; 322.88 K, Liquid, Closed cell (Static) method) is reported as 0.00067 ± 0.00011 kPa and the “vapor or sublimation pressure” value ([2]; 324.88 K, Crystal) is reported as 0.0005 ± 0.00011 kPa. For the same molecule, the “vapor or sublimation pressure” value ([2]; 324.94 K, Liquid, Closed cell (Static) method) was 0.00083 ± 0.00012 kPa, the “vapor or sublimation pressure” value ([2]; 326.83 K, Crystal) was 0.00063 ± 0.00011 kPa and the “vapor or sublimation pressure” value ([2]; 326.92 K, Liquid, Closed cell (Static) method) was 0.00099 ± 0.00012 kPa. The “vapor or sublimation pressure” value ([2]; 328.89 K, Liquid, Closed cell (Static) method) was 0.00117 ± 0.00012 kPa, the “vapor or sublimation pressure” value ([2]; 328.93 K, Crystal) was 0.0008 ± 0.00011 kPa and the “vapor or sublimation pressure” value ([2]; 330.82 K, Crystal) was 0.00098 ± 0.00011 kPa. The “vapor or sublimation pressure” value ([2]; 330.88 K, Liquid, Closed cell (Static) method) was 0.0014 ± 0.00012 kPa, the “vapor or sublimation pressure” value ([2]; 332.75 K, Crystal) was 0.00121 ± 0.00012 kPa and the “vapor or sublimation pressure” value ([2]; 332.86 K, Liquid, Closed cell (Static) method) was 0.00166 ± 0.00013 kPa. The “vapor or sublimation pressure” value ([2]; 334.8 K, Crystal) was 0.00152 ± 0.00012 kPa, the “vapor or sublimation pressure” value ([2]; 334.86 K, Liquid, Closed cell (Static) method) was 0.00201 ± 0.00014 kPa and the “vapor or sublimation pressure” value ([2]; 336.82 K, Crystal) was 0.00189 ± 0.00012 kPa. The “vapor or sublimation pressure” value ([2]; 336.84 K, Liquid, Closed cell (Static) method) was 0.00241 ± 0.00015 kPa, the “vapor or sublimation pressure” value ([2]; 338.82 K, Liquid, Closed cell (Static) method) was 0.00284 ± 0.00016 kPa and the “vapor or sublimation pressure” value ([2]; 338.85 K, Crystal) was 0.00235 ± 0.00012 kPa. The “vapor or sublimation pressure” value ([2]; 340.8 K, Liquid, Closed cell (Static) method) was 0.00336 ± 0.00018 kPa, the “vapor or sublimation pressure” value ([2]; 340.81 K, Crystal) was 0.00284 ± 0.00013 kPa and the “vapor or sublimation pressure” value ([2]; 342.75 K, Crystal) was 0.00348 ± 0.00013 kPa. The “vapor or sublimation pressure” value ([2]; 342.8 K, Liquid, Closed cell (Static) method) was 0.00398 ± 0.0002 kPa, the “vapor or sublimation pressure” value ([2]; 344.79 K, Crystal) was 0.00426 ± 0.00014 kPa and the “vapor or sublimation pressure” value ([2]; 344.8 K, Liquid, Closed cell (Static) method) was 0.0047 ± 0.00022 kPa. The “vapor or sublimation pressure” value ([2]; 345.79 K, Crystal) was 0.00471 ± 0.00015 kPa, the “vapor or sublimation pressure” value ([2]; 346.77 K, Liquid, Closed cell (Static) method) was 0.00547 ± 0.00024 kPa and the “vapor or sublimation pressure” value ([2]; 346.8 K, Crystal) was 0.00528 ± 0.00016 kPa. The “vapor or sublimation pressure” value ([2]; 347.77 K, Crystal) was 0.00575 ± 0.00016 kPa, the “vapor or sublimation pressure” value ([2]; 348.76 K, Crystal) was 0.00631 ± 0.00017 kPa and the “vapor or sublimation pressure” value ([2]; 348.77 K, Liquid, Closed cell (Static) method) was 0.0064 ± 0.00028 kPa. For the same molecule, the “vapor or sublimation pressure” value ([2]; 350.75 K, Liquid, Closed cell (Static) method) was 0.00753 ± 0.00032 kPa, the “vapor or sublimation pressure” value ([2]; 352.74 K, Liquid, Closed cell (Static) method) was 0.00861 ± 0.00036 kPa and the “vapor or sublimation pressure” value ([2]; 354.74 K, Liquid, Closed cell (Static) method) was 0.01013 ± 0.00041 kPa. For the same molecule, the “vapor or sublimation pressure” value ([2]; 356.7 K, Liquid, Closed cell (Static) method) was 0.01168 ± 0.00047 kPa, the “vapor or sublimation pressure” value ([2]; 358.72 K, Liquid, Closed cell (Static) method) was 0.01359 ± 0.00053 kPa and the “vapor or sublimation pressure” value ([2]; 360.66 K, Liquid, Closed cell (Static) method) was 0.01572 ± 0.00056 kPa. For the same molecule, the “vapor or sublimation pressure” value ([2]; 362.68 K, Liquid, Closed cell (Static) method) was 0.01812 ± 0.0006 kPa, the “vapor or sublimation pressure” value ([2]; 364.63 K, Liquid, Closed cell (Static) method) was 0.02093 ± 0.00064 kPa and the “vapor or sublimation pressure” value ([2]; 366.62 K, Liquid, Closed cell (Static) method) was 0.02394 ± 0.00068 kPa. For the same molecule, the “vapor or sublimation pressure” value ([2]; 368.59 K, Liquid, Closed cell (Static) method) was 0.0275 ± 0.00074 kPa, the “vapor or sublimation pressure” value ([2]; 370.59 K, Liquid, Closed cell (Static) method) was 0.03148 ± 0.0008 kPa and the “vapor or sublimation pressure” value ([2]; 372.57 K, Liquid, Closed cell (Static) method) was 0.03612 ± 0.00087 kPa. For the same molecule, the “vapor or sublimation pressure” value ([2]; 374.56 K, Liquid, Closed cell (Static) method) was 0.04095 ± 0.00095 kPa, the “vapor or sublimation pressure” value ([2]; 376.53 K, Liquid, Closed cell (Static) method) was 0.04725 ± 0.001 kPa and the “vapor or sublimation pressure” value ([2]; 378.51 K, Liquid, Closed cell (Static) method) was 0.05325 ± 0.0011 kPa. For the same molecule, the “vapor or sublimation pressure” value ([2]; 380.49 K, Liquid, Closed cell (Static) method) was 0.06051 ± 0.0013 kPa, the “vapor or sublimation pressure” value ([2]; 382.47 K, Liquid, Closed cell (Static) method) was 0.06884 ± 0.0014 kPa and the “vapor or sublimation pressure” value ([2]; 384.46 K, Liquid, Closed cell (Static) method) was 0.07804 ± 0.0015 kPa. For the same molecule, the “vapor or sublimation pressure” value ([2]; 386.43 K, Liquid, Closed cell (Static) method) was 0.08821 ± 0.0017 kPa, the “vapor or sublimation pressure” value ([2]; 388.4 K, Liquid, Closed cell (Static) method) was 0.101 ± 0.0019 kPa and the Triple point temperature ([2]; Crystal) was 347.41 ± 0.39 K.
